Test results published in patent US6545032B1, “Synthesis of [3,5,7]-H-imidazo[1,5-a] imidazol-2(3H)-one compounds” (Torrey Pines Institute for Molecular Studies, priority 1999, dated 2003).

Legend:
mu opiate receptor = biological target: T1, mu opiate receptor (Rattus norvegicus, UniProt P33535); assay: Inhibition of [3H]DAMGO binding to the mu opiate receptor in rat brain homogenates; parameters: Mean: unit not given beside the values; conditions: 0.08 mg of compound per milliliter, 7 nM 3H-labeled DAMGO, rat brain membranes; for % Bound: [3H]DAMGO bound; for Mean: mean bound radioactivity of [3H]DAMGO; for Minus NSB*: mean minus non-specific binding; for % Inhibition: percent inhibition of DAMGO binding
T1 construct: from tissue; host or cells: rat brain membranes/homogenate
Protocol: The previously prepared [3,5,7]-1H-imidazo[1,5-a]-imidazol-2(3H)-one library of individual compounds was screened for the ability to inhibit the binding of [^3H] [D-Ala^2,MePhe^4,Gly^5-ol]enkephalin (DAMGO) that is known to bind specifically to the mu opiate receptor present in rat brain homogenates following literature procedures. [Dooley et al., Science, 266:2019(1994); U.S. Pat. No. 5,763,193.]
Preparation of rat brain membranes and the receptor binding assay were carried out as described in Dooley et al., Life Sci., 52:1509(1993). Each tube in the screening assay contained 0.08 mg of compound mixture per milliliter, 0.5 mL of membrane suspension (0.1 mg of protein), 7 nM ^3H-labeled DAMGO [specific activity 36 Ci/mmol, obtained from the National Institute on Drug Abuse (NIDA) repository through Chiron Mimotopes PeptideSystems (San Diego, Calif.) and […] of peptide mixture in 50 mM Tris-HCl buffer (pH 7.4). The final volume was 0.65 mL. The results of these screenings are shown in the table, below, wherein the “R” groups are as discussed for Example 1. The results are reported as percent inhibition of DAMGO binding.

kappa opiate receptor = biological target: T2, kappa opiate receptor (Cavia porcellus, UniProt P41144); assay: Inhibition of tritiated U69,593 binding to the kappa opiate receptor in guinea pig brain homogenates; parameters: Mean: unit not given beside the values; conditions: 3 nm tritiated U69,593, guinea pig brain membranes; for % Bound: [3H]U69,593 bound; for % Inhibition: inhibition of [3H]U69,593 binding; for Mean: mean bound radioactivity of [3H]U69,593, 2.5 hours 25° C.; for Minus NSB: mean minus non-specific binding
T2 construct: guinea pig cortices and cerebella were homogenized in 40 mL of Buffer A; from tissue; host or cells: guinea pig cortices and cerebella, crude membrane suspension
Protocol: The above-prepared library of individual compounds was screened for the ability to inhibit the binding of tritiated Compound U69,593 that is known to bind specifically to the kappa opiate receptor present in guinea pig brain homogenates following literature procedures. [Dooley et al., J. Biol. Chem., 273(30) 18848-18856 (1998)]
Briefly, guinea pig cortices and cerebella were homogenized in 40 mL of Buffer A [50 mM Tris-HCl, pH 7.4] at 4° C. Homogenates were centrifuged [Beckman® J2-HC, 35, 300×g] for 10 minutes. The pellets were resuspended in fresh buffer and incubated at 37° C. for 40 minutes. Following incubation, the suspensions were centrifuged as before, the resulting pellets resuspended in 100 volumes of Tris buffer, and the suspensions combined. Membrane suspensions were prepared and used on the same day. Protein content of the crude homogenates was determined by the method of Bradford, Anal. Biochem., 72:248-252 (1976).
Each assay tube contained 0.5 mL of membrane suspension, 3 nm of tritiated Compound U69,593 [(5a,7a,8b)-(−)-N-methyl-N-(7-(1-pyrrolidinyl)-1-oxaspiro(4,5)dec-8-yl)-benzeneacetamide; Lahti et al., European J. Pharmacol., 109:281-284(199-85)] in a total volume of 0.65 mL. Assay tubes were incubated for 2.5 hours a 25° C. The assay was then filtered through GF-B filters on a Tomec™ harvester (Orange, Conn.). The filters were subsequently washed with 6 mL of 50 mM Tris-HC1, pH 7.4 at 4° C. Bound radioactivity was counted on a Wallace™ Beta-plate Liquid Scintillation Counter (Piscataway, N.J.). Unlabeled U50, 488 [(trans-(dl)-3,4-dichloro-N-methyl-N-[2-(1-pyrrolidinyl)cyclohexyl]-benzeneacetamide) methane sulfonate hydrate; Lahti et al., Life Sci., 31:2257-xx(1982) and Von Voightlander et al., J. Pharmacol. Exp. Ther., 224:7 (1983)] was used as a competitive inhibitor to generate a standard curve and determine nonspecific binding. The results of these assays are shown in the table, below, wherein the “R” groups are as discussed for Example 1.

T2 sequence (P41144 whole entry): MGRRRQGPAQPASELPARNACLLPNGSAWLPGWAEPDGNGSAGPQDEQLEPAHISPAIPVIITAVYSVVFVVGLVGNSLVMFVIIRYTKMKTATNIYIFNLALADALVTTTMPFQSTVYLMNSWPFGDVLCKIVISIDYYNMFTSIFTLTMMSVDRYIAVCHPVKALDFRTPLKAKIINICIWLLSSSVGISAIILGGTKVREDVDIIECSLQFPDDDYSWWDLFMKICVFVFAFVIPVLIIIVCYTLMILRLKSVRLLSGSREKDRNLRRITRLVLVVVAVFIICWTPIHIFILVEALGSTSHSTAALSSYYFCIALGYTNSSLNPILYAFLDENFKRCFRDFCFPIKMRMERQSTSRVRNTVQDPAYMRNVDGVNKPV
T1 sequence (P33535 whole entry): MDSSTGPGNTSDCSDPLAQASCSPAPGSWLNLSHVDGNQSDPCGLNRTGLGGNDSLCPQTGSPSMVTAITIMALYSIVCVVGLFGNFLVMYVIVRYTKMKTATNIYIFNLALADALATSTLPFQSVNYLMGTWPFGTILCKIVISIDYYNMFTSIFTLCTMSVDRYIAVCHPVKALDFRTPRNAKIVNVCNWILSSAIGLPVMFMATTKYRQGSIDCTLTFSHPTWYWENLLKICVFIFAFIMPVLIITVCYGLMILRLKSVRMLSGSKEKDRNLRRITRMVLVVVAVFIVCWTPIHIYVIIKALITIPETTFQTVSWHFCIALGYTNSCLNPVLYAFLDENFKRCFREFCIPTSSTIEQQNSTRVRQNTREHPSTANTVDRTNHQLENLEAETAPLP

Row | Structure (SMILES) | % Bound (mu opiate receptor) | Mean (mu opiate receptor) | Minus NSB* (mu opiate receptor) | % Inhibition (mu opiate receptor) | % Bound (kappa opiate receptor) | % Inhibition (kappa opiate receptor) | Mean (kappa opiate receptor) | Minus NSB (kappa opiate receptor)
1 | Cc1nc(C(C)C)c2n1C(C)C(=O)N2 (centres unmarked) [Pool 18] | 71% | 989.15 | 681.15 | 29% | 88.016% | 11.984% | 1818.85 | 911.85
2 | CC(C)c1nc(Cc2cccc(C(F)(F)F)c2)n2c1NC(=O)C2C(C)C (racemic) [Pool 73] | 69% | 967.25 | 659.25 | 31% | 78.205% | 21.795% | 1717.2 | 810.20
3 | CCCCc1nc(C)n2c1NC(=O)C2C(C)C (centres unmarked) [Pool 44] | 67% | 947.55 | 639.55 | 33% | 110.299% | −10.299% | 2049.7 | 1142.70
4 | CC(C)c1nc(Cc2ccc(Br)cc2)n2c1NC(=O)C2C(C)C (racemic) [Pool 77] | 39% | 682.95 | 374.95 | 61% | 73.658% | 26.342% | 1670.1 | 763.10
5 | CC(C)c1nc(C(C)(C)C)n2c1NC(=O)C2C(C)C (centres unmarked) [Pool 135] | 65% | 931.85 | 623.85 | 35% | 69.170% | 30.830% | 1623.6 | 716.60
6 | CC(C)CCc1nc(C(C)C)c2n1C(C(C)C)C(=O)N2 (centres unmarked) [Pool 127] | 63% | 909.6 | 601.60 | 37% | 66.178% | 33.822% | 1592.6 | 685.60
7 | Cc1nc(C(C)C)c2n1C(CC1CCCCC1)C(=O)N2 (centres unmarked) [Pool 29] | 61% | 891.65 | 583.65 | 39% | 88.277% | 11.723% | 1821.55 | 914.55
8 | CC(C)c1nc(Cc2cccc(F)c2)n2c1NC(=O)C2C(C)C (racemic) [Pool 71] | 57% | 853.7 | 545.70 | 43% | 61.245% | 38.755% | 1541.5 | 634.50
9 | CCC(C)c1nc(C)n2c1NC(=O)C2C(C)C (centres unmarked) [Pool 54] | 53% | 815.2 | 507.20 | 47% | 100.410% | −0.410% | 1947.25 | 1040.25
10 | CC(C)c1nc(Cc2cccc(Br)c2)n2c1NC(=O)C2C(C)C (racemic) [Pool 72] | 27% | 563 | 255.00 | 73% | 65.748% | 34.252% | 1588.15 | 681.15
11 | Cc1nc(C(C)C)c2n1C(C(C)C)C(=O)N2 (centres unmarked) [Pool 52] | 68% | 959.85 | 651.85 | 32% | 74.744% | 25.256% | 1681.35 | 774.35
12 | CC(C)c1nc(C2(c3ccccc3)CC2)n2c1NC(=O)C2C(C)C (racemic) [Pool 67] | 55% | 830 | 522.00 | 45% | 84.662% | 15.338% | 1784.1 | 877.10
13 | Cc1nc(CC(C)C)c2n1C(C(C)C)C(=O)N2 (centres unmarked) [Pool 37] | 66% | 932.9 | 624.90 | 34% | 62.973% | 37.027% | 1559.4 | 652.40
14 | Cc1ncc2n1C(C(C)C)C(=O)N2 (centres unmarked) [Pool 34] | 68% | 956.4 | 648.40 | 32% | 79.117% | 20.883% | 1726.65 | 819.65
15 | CC(C)c1nc(Cc2ccc(-c3ccccc3)cc2)n2c1NC(=O)C2C(C)C (racemic) [Pool 84] | 57% | 850.4 | 542.40 | 43% | 69.624% | 30.376% | 1628.3 | 721.30
16 | COc1ccc(Cc2nc(C(C)C)c3n2C(C(C)C)C(=O)N3)cc1 (racemic) [Pool 78] | 49% | 775.2 | 467.20 | 51% | 87.360% | 12.640% | 1812.05 | 905.05
17 | CCCCc1nc(C)n2c1NC(=O)C2C(C)C (racemic) [Pool 60] | 62% | 902.8 | 594.80 | 38% | 81.892% | 18.108% | 1755.4 | 848.40
18 | CCOc1ccc(Cc2nc(C(C)C)c3n2C(C(C)C)C(=O)N3)cc1 (racemic) [Pool 79] | 65% | 929.1 | 621.10 | 35% | 90.338% | 9.662% | 1842.9 | 935.90
19 | COc1cccc(Cc2nc(C(C)C)c3n2C(C(C)C)C(=O)N3)c1 (racemic) [Pool 76] | 57% | 854 | 546.00 | 43% | 91.902% | 8.098% | 1859.1 | 952.10
20 | Cc1nc(CC2CCCCC2)c2n1C(C(C)C)C(=O)N2 (racemic) [Pool 62] | 52% | 805 | 497.00 | 48% | 83.909% | 16.091% | 1776.3 | 869.30
21 | Cc1nc(CCCNC(=N)N)c2n1C(C(C)C)C(=O)N2 (centres unmarked) [Pool 42] | 29% | 581.65 | 273.65 | 71% | 48.200% | 51.800% | 1406.35 | 499.35
22 | CC(C)c1nc(CCCC2CCCCC2)n2c1NC(=O)C2C(C)C (centres unmarked) [Pool 140] | 32% | 615.55 | 307.55 | 68% | 49.903% | 50.097% | 1424 | 517.00
